From patent publication US4620930A, “Process for rapidly determining biological toxicity of wastewater” (priority 1985, dated 1986) come the findings set out here.

Converted amounts (≈) assume the structure as drawn. Like-named read-outs stand apart in the source and are kept apart here.

For test [1], the system named is PHENOBAC bacterial culture. Kind of test: microbe, parasite or virus in culture. It is filed as cell-based, PHENOBAC mutant bacteria containing Pseudomonas. As to conditions: for IC50: 20 min, read-out: concentration resulting in an inhibition of the bacteria of about 50%. An excerpt: In the rapid toxicity test described herein the dried culture first undergoes rehydration and then respiration development when contacted with aqueous system containing organic material.
In carrying out the test process, a preselected amount of the dried bacterial culture is first charged to a preselected amount of a standardized substrate for the purpose of determining a standard of respiration or activity of the culture. […] Typically, the quantity of bacterial culture is selected to give a good rate of oxygen decline, e.g., a decline of 2-5 mg/liter oxygen over a twenty minute interval. For reference purposes from 5 to 15 grams of culture/500 ml. of sample solution will be sufficient. The standardized substrate used in the test procedure is […] or another standardized medium of known composition. […] During this period, this oxygen respiration activity is measured by measuring the dissolved oxygen content in the substrate. The dissolved oxygen content then is plotted as a function of time. The rate of decline of dissolved oxygen content in the substrate is ascertained at some preselected time where the rate of dissolved oxygen decline is substantial and where the residual oxygen in the sample of greater than 0.5 mg/l oxygen. With bacterial cultures of the type described, this preselected time can be within the range of 10 to 30 minutes. […] Although numerous methods can be used to ascertain the rate of decline of oxygen, the simplest is to determine that rate from a graph by taking the slope (y/x) of the curve at the preselected time.
The organic quality of sewage, in terms of organic content or toxic substance, is measured by repeating the exact same process, using the test sample in place of the standardized sample. In many instances, particularly where the test sample contains a substantial amount of toxic material or organic matter, the test sample may be diluted with distilled water to provide a more accurate measurement. This is done in those cases where the slope of the curve is small. In any event, the test substrate or wastewater to be tested is added to the test vessel containing the bacterial culture and the dissolved oxygen content measured as a function of time. The rate of decline in dissolved oxygen content for the test substrate or wastewater is then determined at the same preselected time utilized for the standard. This rate of decline is then compared to the rate of decline for the standardized substrate. The relative toxicity or inhibition of the test water versus the standardized substrate, can then be calculated by the equation: [formula]
A baseline standard was generated for a bacterial formulation sold under the trademark PHENOBAC by Polybac Corporation by first charging 350 ml of distilled water to a first vessel. The water was then saturated with oxygen by sealing the vessel which was half full of air and shaking it rapidly.

Test [2] deals with PHENOBAC bacterial culture. Description: microbe, parasite or virus in culture. As to conditions: Pseudomonas, pH 7, read-out: percent inhibition, with prehydration. Here is the method:
A baseline standard was generated for a bacterial formulation sold under the trademark PHENOBAC by Polybac Corporation by first charging 350 ml of distilled water to a first vessel. The water was then saturated with oxygen by sealing the vessel which was half full of air and shaking it rapidly. The dissolved oxygen content of the sample was then measured to determine if the oxygen level exceeded 5.0 mg/l at a temperature of 20° C. (If the level was above 5.0 mg/l, it was assumed the sample was sufficiently saturated with oxygen to proceed.) After oxygen saturation, the water was charged to a second vessel containing 8 grams of the dried granular PHENOBAC mutant bacteria containing Pseudomonas and 0.6 grams of potassium bicarbonate. The latter acted to buffer the pH in the vessel to approximately 7. A dissolved oxygen probe was then inserted into the vessel and the contents of the vessel stirred while measuring the dissolved oxygen concentration in the vessel. Several measured data points were recorded in one to two minute intervals for a period of about 30 minutes. These values were plotted with dissolved oxygen in mg/liter represented on the ordinant and time (minute) plotted represented on the abscissa. The baseline standard curves are shown as Curves A and J on FIGS. 1 and 2 respectively.
A series of tests was conducted for the purpose of determining the relative toxicity of various phenolic solutions. The general test technique involved the utilization of test samples containing various known concentrations of toxic material, e.g., phenol. The test sample was buffered to a pH of 7 by the addition of sodium hydroxide or sulphuric acid. Measurement of pH using pH paper was found most convenient. Once the pH of the solution was at the appropriate level, the sample was then aerated by placing the sample in a vessel half full of air, sealing the vessel and shaking the vessel vigorously for several minutes. The oxygen saturated 350 ml. solution having a dissolved oxygen content greater than 5.0 mg/l was then introduced to a test vessel containing 8 grams of dried granular PHENOBAC bacterial culture and 0.5 g of sodium bicarbonate. The dissolved oxygen concentration in the closed sealed vessel was then measured and plotted for a series of phenol concentrations in FIG. 1 in the same manner as the baseline standard in Example 1 and also illustrated in FIG. 1. Each curve, B-G, is labeled with respect to the phenol concentration present during the test. Curve A represents the baseline standard. From these curves one can calculate the rate of decline in dissolved oxygen concentration observed at 20 minutes for each phenol concentration. The percent inhibition is then calculated from the various dissolved oxygen decline curves for each phenol concentration in FIG. 1 according to the equation: [formula]
As in Examples 1 and 2, the general technique for these tests involved pretreatment of the wastewater or test solution to achieve a pH of 7.0 and an oxygen saturation of at least 5.0 mg/l. However, prior to adding the test solution to the test vessel containing the dried PHENOBAC culture, the bacteria were allowed to rehydrate 10 minutes in clean water and then the test solution containing phenol was added to the test vessel. In this manner, the initial rehydration of the bacterial populations was carried out in the absence of the chemical being tested. This is the customary prior art procedure. After rehydration, the bacteria were then exposed to the test chemical and its effect on bacterial respiration evaluated.

Where [3] appears, read: Pseudomonas, pH 7, read-out: percent inhibition, preferred contact rehydration.

With `[Cu+2]` [copper, copper (+2) ion], the “concentration resulting in an inhibition of the bacteria of about 50%” value in test [1] (from FIG. 3, rate of dissolved oxygen decline at 20 minutes versus baseline standard) turned out to be 29 mg/L.
`C=O` [formaldehyde]: the IC50 in test [1] (Pseudomonas) is approximately 140 µg/mL (≈ 4.66 mM).
In the case of `Oc1ccccc1` [phenol], in test [2], the inhibition at 312 µg/mL was 10%, the inhibition at 625 µg/mL worked out at 17%, the inhibition at 1250 µg/mL is 33% and the inhibition at 2500 µg/mL came to 57%. For the same molecule, in test [2], the inhibition at 5000 µg/mL was found to be 80% and the inhibition at 10000 µg/mL worked out at 93%. Further, the IC50 in test [1] (Pseudomonas) is approximately 1600 µg/mL (≈ 17 mM). Moreover, in test [1] (setting [3]), the inhibition at 312 µg/mL was determined as 12%, the inhibition at 625 µg/mL is 22%, the inhibition at 1250 µg/mL was 37% and the inhibition at 2500 µg/mL came to 68%. Besides, in test [1] (setting [3]), the inhibition at 5000 µg/mL came out at 87% and the inhibition at 10000 µg/mL worked out at 98%. The “inhibition or sensitivity of the bacteria, direct contact rehydration compared with prehydration in water” value in test [1] (rehydrated in direct contact with the test phenol solutions rather than in water first) is “greater inhibition or sensitivity”.
